What was measured:
[1] = system: healthy male participants; assay: Heart rate, arterial line/ECG recording; format: in vivo, human; conditions: days B and C, after 15 min of esmolol 1.25 mg/kg bolus+[…] iv
[2] = system: healthy male participants; assay: Relative stroke volume; format: in vivo, human; conditions: esmolol 1.25 mg/kg bolus+[…] iv
cardiac beta 1 receptors = conditions: esmolol dose used (1.25 mg/kg bolus+[…]); cited from earlier work

## COC(=O)CCc1ccc(OCC(O)CNC(C)C)cc1 (stereo not shown) [esmolol]
[1]
  Average heart rate at baseline (0 min): 58.2 bpm
[2]; day B
  Reduction of mean stroke volume from −15 minutes to baseline: 13.7%
[2]; day C, before glucagon
  Reduction of mean stroke volume from −15 minutes to baseline: 25.8%
Cardiac beta 1 receptors
  Cardiac beta 1 receptors blocked: > 85%

— publication PMC7763418 (Journal of the American Heart Association: Cardiovascular …, 2020)
